ChEMBL document CHEMBL1150903, “Complement-inhibiting cucurbitacin glycosides from Picria fel-terrae” (J Nat Prod, 1998)
The source made the active and inactive calls. The rule behind the calls is not given here.

Key:
Bacillus cereus = assay: Antibacterial activity against Bacillus cereus; format: functional
[1] = Inhibition of human serum classical complement system assessed as modulation of complement pathway by classical hemolytic complement assay
Candida albicans = assay: Antifungal activity against Candida albicans; format: functional
Human alphaherpesvirus 1 = assay: Antiviral activity against HSV1 assessed as reduction factor of viral titer at 100 ug/ml; format: functional, organism-based
Pseudomonas aeruginosa = assay: Antibacterial activity against Pseudomonas aeruginosa; format: functional
[2] = Inhibition of human serum alternative complement system assessed as modulation of complement pathway by alternative hemolytic complement assay
Aspergillus niger = assay: Antifungal activity against Aspergillus niger; format: functional
Trichophyton rubrum = assay: Antifungal activity against Trichophyton rubrum; format: functional
Staphylococcus aureus = assay: Antibacterial activity against Staphylococcus aureus; format: functional
Escherichia coli = assay: Antibacterial activity against Escherichia coli; format: functional
[3] = Growth inhibition of human NCI60 cells; format: functional
SF-295 = assay: Growth inhibition of human SF295 cells; format: functional
[4] = Inhibition of human serum classical complement system assessed as modulation of complement pathway at 420 uM by classical hemolytic complement assay

SMILES	MIC (Bacillus cereus) [µg/mL]	Activity [1]	IC50 [1] [µM]	MIC (Candida albicans) [µg/mL]	Activity (Human alphaherpesvirus 1)	MIC (Pseudomonas aeruginosa) [µg/mL]	Activity [2]	IC50 [2] [µM]	MIC (Aspergillus niger) [µg/mL]	MIC (Trichophyton rubrum) [µg/mL]	MIC (Staphylococcus aureus) [µg/mL]	MIC (Escherichia coli) [µg/mL]	GI50 [3] [µM]	TGI [3] [µM]	GI50 (SF-295) [µM]	inhibition [4] [%]
CC(C)C1=CC(=O)[C@](C)([C@H]2[C@H](O)C[C@@]3(C)[C@@H]4CC=C5[C@@H](CC[C@@H](O[C@@H]6OC[C@@H](O)[C@H](O)[C@H]6O)C5(C)C)[C@]4(C)C(=O)C[C@]23C)O1 [PICFELTARRACEMIN VI]	> 100	Dose-dependent effect	29	> 100	Active	> 100	Dose-dependent effect	21	> 100	> 100	> 100	> 100				
CC(C)C1=CC(=O)[C@](C)([C@H]2[C@H](O)C[C@@]3(C)[C@@H]4CC=C5[C@@H](CC[C@@H](O[C@@H]6OC[C@@H](O)[C@H](O)[C@H]6O[C@@H]6O[C@@H](C)[C@H](O)[C@@H](O)[C@H]6O)C5(C)C)[C@]4(C)C(=O)C[C@]23C)O1 [PICFELTARRACEMIN IA]	> 100	Dose-dependent effect	95	> 100	Active	> 100	Dose-dependent effect	336	> 100	> 100	> 100	> 100	> 100	> 100	59	
CC(C)C1=CC(=O)[C@](C)([C@H]2[C@H](O)C[C@@]3(C)[C@@H]4CC=C5[C@@H](CC[C@@H](O[C@@H]6OC[C@@H](O)[C@H](O[C@@H]7O[C@H](CO)[C@@H](O)[C@H](O)[C@H]7O[C@@H]7O[C@@H](C)[C@H](O)[C@@H](O)[C@H]7O)[C@H]6O)C5(C)C)[C@]4(C)C(=O)C[C@]23C)O1 [PICFELTARRACEMIN IV]	> 100	Dose-dependent effect	131	> 100	Active	> 100	Dose-dependent effect	313	> 100	> 100	> 100	> 100				
CC(C)C1=CC(=O)[C@](C)([C@H]2[C@H](O)C[C@@]3(C)[C@@H]4CC=C5[C@@H](CC[C@@H](O[C@@H]6O[C@H](CO)[C@@H](O)[C@H](O)[C@H]6O[C@@H]6O[C@@H](C)[C@H](O)[C@@H](O)[C@H]6O)C5(C)C)[C@]4(C)C(=O)C[C@]23C)O1 [PICFELTARRACEMIN IB]	> 100	Dose-dependent effect	> 420	> 100	Active	> 100	Dose-dependent effect	68	> 100	> 100	> 100	> 100	> 100	> 100		48
O=C(/C=C/c1ccc(O)c(O)c1)O[C@H](Cc1ccc(O)c(O)c1)C(=O)O [ROSMARINIC ACID]			81					408								
